# Results as given in publication PMC10460844, “Real‐Time Monitoring of Multitarget Antimicrobial Mechanisms of Peptoids Using Label‐Free Imaging with Optical Diffraction Tomography” (Advanced Science, 2023).
# Like-named read-outs stand apart in the source and are kept apart here. Square brackets hold non-standard residues; d marks the D form. Peptide text beside a SMILES is read from it. Gly(N(CH2)2(3-indolyl)) = O=C(O)CNCCc1c[nH]c2ccccc12; Nspe = C[C@H](NCC(=O)O)c1ccccc1; Nlys = NCCCCNCC(=O)O
# Tests used:
# [1] = Analytical reversed-phase HPLC elution (hydrophobicity); assay type: physicochemical; details: Table 1; analytical RP-HPLC, SunFire C18 […] 250 mm, water/ACN + 0.1% TFA, 5% B 2 min then linear to 100% B over 30 min, 1 mL/min, UV 220 nm; used as measure of hydrophobicity
# In short: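 Analytical reversed-phase HPLC on a C18 column (4.6 × 250 mm, 5 μm) at 1 mL/min, water/acetonitrile each with 0.1% TFA. Held at 5% B for 2 min, then linear to 100% B over 30 min and held 5 min, with UV detection at 220 nm; retention time (tR) serves as hydrophobicity measure.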
# [2] = tested on: E. coli ATCC 25922; assay type: cell-based, Escherichia coli
# In short: (§1)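 Visual turbidity endpoint defines the MIC. Inoculum: secondary culture diluted to OD 0.001, ≈2–5 × 10^5 CFU mL^−1, in cation-adjusted MHB2 with 0.02% bovine serum albumin and 0.001% acetic acid; six 2-fold dilutions from 25 µM, run in triplicate.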
# [3] = tested on: S. aureus ATCC 25923; assay type: cell-based, Staphylococcus aureus
# In short: as §1
# [4] = tested on: rat erythrocytes; test: Hemolysis assay; assay type: cell-based
# In short: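 Washed Sprague-Dawley rat erythrocytes (10% suspension in PBS pH 7.4) mixed with peptoids (0–100 µM), 60 min at 37 °C; supernatant A540 expressed as % of 1% Triton X-100 lysis. HC10/HC50 are concentrations giving 10%/50% hemolysis; Hmax is hemolysis at 100 µM.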
# [5] = tested on: E. faecium KCTC 13225; assay type: cell-based
# [6] = tested on: E. faecalis KCTC 3511; assay type: cell-based
# [7] = tested on: P. aeruginosa KCTC 1637; assay type: cell-based
# [8] = tested on: S. typhimurium SL 1344; assay type: cell-based
# [9] = tested on: E. coli ATCC 25922; test: NPN uptake assay (outer membrane); assay type: cell-based; details: E. coli ATCC 25922, 5 mM HEPES pH 7.2, 10 µM NPN, fluorescence
# Method: 14. In vitro biological assays […]
# The ability of peptoids to increase the permeability of the outer membrane of Gram-negative bacteria was determined by measuring the incorporation of the NPN fluorescent dye into the outer membrane of E. coli ATCC 25922. Bacterial cells were suspended to a final concentration of OD600 = 0.05 in 5 mM HEPES buffer, pH 7.2, containing 5 mM KCN. Then […]
# 200 μL NPN dye was added to wells of a 96 well plate to produce a final concentration of 10 μM, and the background fluorescence was recorded (λex = 350 nm, λem = 420 nm). Aliquots of peptoids were added to the well, and fluorescence was recorded as a function of time until there was no further increase in fluorescence. Increases of the permeability of the outer membrane after the addition of peptoids was reflected by increased fluorescence values as a result of NPN incorporation into the membrane. […]
# [10] = Table S2, broth dilution, MHB2, 37 °C 24 h, max 25 µM, mean of triplicate
# [11] = Table S3, counter-ion exchange series, mean of triplicate
# [12] = Table S3, counter-ion exchange series (TFA, HCl, AcOH salts), mean of triplicate
# [13] = gram-positive pathogenic strain, mean of triplicates
Structure (SMILES),HPLC elution (%ACN) [1] [%ACN],"MIC E. coli ATCC25922 [2, 10] [µM]","MIC S. aureus ATCC25923 [3, 10] [µM]","MIC S. aureus ATCC25923 [3, 11] [µM]",H max (100 µM) [4] [%],HC10 ([4]; pH 7.4) [µM],HC50 ([4]; pH 7.4) [µM],HC10 ([4]; red cells of rat) [µM],MIC E. faecium KCTC 13225 ([5]; KCTC 13225) [µM],MIC E. faecalis KCTC 3511 ([6]; KCTC 3511) [µM],MIC P. aeruginosa KCTC 1637 ([7]; KCTC 1637) [µM],MIC S. typhimurium SL 1344 ([8]; SL 1344) [µM],outer membrane disruption (NPN uptake) [9],"MIC E. coli ATCC25922 [2, 12] [µM]",other results
C[C@@H](c1ccccc1)N(CC(=O)N(CCCCN)CC(=O)N(CC(=O)N(CC(=O)N(CCCCN)CC(=O)N(CC(=O)N(CC(=O)N(CCCCN)CC(=O)N(CCc1c[nH]c2ccccc12)CC(=O)N(CCc1c[nH]c2ccccc12)CC(N)=O)[C@@H](C)c1ccccc1)[C@@H](C)c1ccccc1)[C@@H](C)c1ccccc1)[C@@H](C)c1ccccc1)C(=O)CN(C(=O)CNCCCCN)[C@@H](C)c1ccccc1 [peptoid 11] (H-[Nlys][Nspe][Nspe][Nlys][Nspe][Nspe][Nlys][Nspe][Nspe][Nlys][Gly(N(CH2)2(3-indolyl))][Gly(N(CH2)2(3-indolyl))]-NH2),54.0,6.3,1.6,1.6,103.4 ± 3.2,8.3,22.2,6.9,<0.8,<0.8,3.1,25,strongly disrupted,,MIC E. coli ATCC25922 ([2]; ATCC 25922): 3.1 µM; Hmax (100 µM) [4]: 111.9±2.7%; HC50 ([4]; red cells of rat): 27.5 µM
"C[C@@H](c1ccccc1)N(CC(N)=O)C(=O)CN(C(=O)CN(CCCCN)C(=O)CN(C(=O)CN(C(=O)CN(CCCCN)C(=O)CN(C(=O)CN(C(=O)CN(CCCCN)C(=O)CN(C(=O)CN(C(=O)CNCCCCN)[C@@H](C)c1ccccc1)[C@@H](C)c1ccccc1)[C@@H](C)c1ccccc1)[C@@H](C)c1ccccc1)[C@@H](C)c1ccccc1)[C@@H](C)c1ccccc1)[C@@H](C)c1ccccc1 [peptoid 1, reference compound] (H-[Nlys][Nspe][Nspe][Nlys][Nspe][Nspe][Nlys][Nspe][Nspe][Nlys][Nspe][Nspe]-NH2)",54.5,6.3,1.6,1.6,,,,,,,,,strongly disrupted,6.3,"HC10 ([4]; Table S2, 10% hemolysis in rat erythrocytes, PBS pH 7.4, 37 °C 60 min, mean of triplicate): 8.3 µM; HC50 ([4]; Table S2, 50% hemolysis in rat erythrocytes, PBS pH 7.4, 37 °C 60 min, mean of triplicate): 22.9 µM; HC10 ([4]; Table S3, counter-ion exchange series, 10% hemolysis in rat erythrocytes, mean of triplicate): 15.9 µM; HC50 ([4]; Table S3, counter-ion exchange series, 50% hemolysis in rat erythrocytes, mean of triplicate): 49.0 µM; Hmax (100 µM) ([4]; Table S3, counter-ion exchange series, hemolysis at 100 µM): 72.1±2.1%; H max (100 µM) ([4]; percentage of hemolysis at the highest concentration tested (100 µM), rat erythrocytes): 112.3 ± 0.7%; MIC E. faecium KCTC 13225 [5, 13]: <0.8 µM; MIC E. faecalis KCTC 3511 [6, 13]: 0.8 µM; MIC P. aeruginosa KCTC 1637 ([7]; gram-negative pathogenic strain, maintained in refined LB media, mean of triplicates): 6.3 µM; MIC S. typhimurium SL 1344 ([8]; gram-negative pathogenic strain, mean of triplicates): 25 µM"
C[C@@H](c1ccccc1)N(CC(=O)N(CCCCN)CC(=O)N(CCc1c[nH]c2ccccc12)CC(=O)N(CCc1c[nH]c2ccccc12)CC(N)=O)C(=O)CN(CCCCN)C(=O)CN(CCCCN)C(=O)CN(C(=O)CN(C(=O)CN(CCCCN)C(=O)CN(C(=O)CN(C(=O)CNCCCCN)[C@@H](C)c1ccccc1)[C@@H](C)c1ccccc1)[C@@H](C)c1ccccc1)[C@@H](C)c1ccccc1 [peptoid 29] (H-[Nlys][Nspe][Nspe][Nlys][Nspe][Nspe][Nlys][Nlys][Nspe][Nlys][Gly(N(CH2)2(3-indolyl))][Gly(N(CH2)2(3-indolyl))]-NH2),48.6,6.3,6.3,,9.8 ± 1.8,> 100,> 100,88.6,1.6,3.1,3.1,6.3,somewhat lower,6.3,"MIC E. coli ATCC25922 ([2]; broth dilution, MHB2 with 0.001% acetic acid and 0.02% BSA, 2–5 × 10^5 CFU/mL, 37 °C 24 h, max 25 µM, mean of triplicates): 6.3 µM; MIC S. aureus ATCC25923 ([3]; ATCC 25923): 12.5 µM; HC50 [4]: > 100 µM"
